Experimental data reported in US7972848B2, “Isolation and identification of cross-reactive T cells” (Opexa Therapeutics, Inc., priority 2002, dated 2011).

Tests used:
HLA-DR (DRB1*1501) = HLA-DR (DRB1*1501) (Homo sapiens, UniProt P01903+P01911); settings: cited from earlier work
[1] = test system: MBP83-99 specific and MBP93-105 specific T cell clones; assay: Cross-reactivity of T cell responses of MBP83-99 and MBP93-105 specific T cell clones; assay type: cell-based, human; settings: four MBP83-99 specific and six MBP93-105 specific T cell clones; data not shown
Source text: Although the T cell recognition of MBP in MS patients is relatively heterogeneous, some regions of MBP have immunodominant properties, such as the 84-102/83-99 region and the 151-170 region of MBP. The immunodominant properties of these regions may be associated with their binding affinity to HLA-DR (DRB 1*1501) preferentially expressed in the MS population. […] Although the 93-105 region of MBP homologues and the 1-13 region of HHV-6 (U24) have an overlap of 4 amino acids (PRTP) (SEQ ID NO:11) with the 83-99 immunodominant region of MBP, the PRTP sequence alone is not sufficient to form an individual T cell epitope and is unlikely to represent the immunodominant T cell epitopes. […] However, the possibility exists that the increased T cell sensitization to MBP in MS patients may be initially triggered by the HHV-6 antigen that shares the sequence homology with MBP93-105 and later spreads to other epitopes of MBP by the mechanism known as epitope spreading.

[2] = test system: peripheral blood mononuclear cells (PBMC); assay: Estimated precursor frequency of peptide-reactive and cross-reactive T cells in PBMC (proliferation assay); assay type: cell-based, human; settings: for estimated frequency of T cells specific for the antigen: in PBMC, primed and tested with the same antigen; for estimated frequency of cross-reactive T cells (reactive to both peptides) primed by the peptide: primed by the labelled peptide
Protocol: The T cell responses to two synthetic peptides containing an identical core sequence of seven amino acids was measured to estimate the precursor frequency of cross-reactive T cells in PBMC. Two 13-mer peptides corresponding to residues 1-13 of HHV-6 U24 and residues 93-105 of MBP were synthesized and purified to greater than 95%. The MBP93-105 and HHV-6 (U24)1-13 peptides contain the identical core sequence of 7 amino acids with distinct flanking residues (MBP-IVTPRTPPPSQGK and HHV6-MDRPRTPPPSYSE) (SEQ ID NO: 8 and SEQ ID NO: 9, respectively).
Peripheral blood mononuclear cells (PBMC) were seeded at 3×10^5 cells per well in 96-well U-bottomed plates in the presence of the peptides of MBP93-105 or HHV-6 (U24)1-13 at 30 μg/ml or the whole MBP (40 μg/ml), respectively. A total of 24 wells were plated for each antigen. Seven days later, the cultures were tested for the reactivity to both peptides using AIM-V serum free medium (Gibco BRL, Grand Island, N.Y.) alone as a control. To this end, each culture was split into three identical aliquots and tested for the reactivity to MBP and the indicated peptides in duplicate. Two aliquots were tested for reactivity to peptide MBP93-105 and peptide HHV-6 (U24)1-13 at the same concentration of 30 μg/ml, respectively, in the presence of irradiated (6,000 rads) autologous PBMC (10^5 cells per well) as a source of antigen-presenting cells (APC). One aliquot served as a control (medium alone in the presence of APC). The reactivity of the end cultures was measured after 72 hours by proliferation assays as described in Zhang et al., “MHC restricted clonotypic depletion of human myelin basic protein by T cell vaccination,” Science 261:1451-1454 (1993), which is hereby incorporated by reference in its entirety.
According to the reactivity of the resulting T cells, they were categorized as mono-specific T cells or cross-reactive T cells. Mono-specific MBP- or HHV-6 reactive T cells were reactive only to the peptide originally used to prime the cells. Mono-specific T cells were defined as reactive to the given peptide when CPM was greater than 1,000 and exceeded CPM of the control (medium alone) and of the other peptide by at least three-fold. Cross-reactive T cells were reactive to both peptides after being originally primed with only one of the peptides. Cross-reactive T cells were defined as CPM of both peptides exceeded 1,000 and the control CPM by at least three-fold. The frequency of peptide-reactive T cells was then estimated by dividing the number of positive wells by the total number of PBMC seeded in the initial culture.

serum IgG antibodies = assay: Serum antibody reactivity to the peptides by ELISA; assay type: binding, human; settings: serum dilutions 1:50 and 1:100; MS patients compared to control subjects
Protocol: We further addressed whether the increased T cell responses to both peptides of HHV-6 (U24)1-13 and MBP93-105 were consistent with potential B cell sensitization to the peptides in MS patients as compared to healthy controls. To this end, serum specimens freshly obtained from the same MS patients and the control subjects were examined for specific antibody reactivity to the peptides by ELISA.
Antibody titers were determined in serum specimens by ELISA. Briefly, microtiter plates were coated overnight at 4° C. with the peptides at 5 μg/ml in a carbonate buffer (100 mM, pH 9.5). An irrelevant peptide and MBP41-59 were used as reference peptides. Non-specific binding sites were saturated with FBS-PBS for 1 hour and washed subsequently with PBS-T. Serum samples were prepared in serial dilutions (1:50, 1:100, 1:500) with FBS-PBS and 100 μl of each sample were added in duplicate wells. The rest of the procedure is the same as that described above.

Substance | binding affinity to DRB1*1501 / HLA-DR (HLA-DR (DRB1*1501)) | cross-reactivity between T cell responses to MBP83-99 peptide and MBP93-105 peptide [1] | estimated frequency of T cells specific for the antigen ([2]; MS patients) | estimated frequency of cross-reactive T cells (reactive to both peptides) primed by the peptide ([2]; MS patients) | estimated frequency of T cells specific for the antigen ([2]; healthy controls) | estimated frequency of cross-reactive T cells (reactive to both peptides) primed by the peptide ([2]; healthy controls) | serum antibody titers for the peptide (serum IgG antibodies) | cross-reactive T cells primed by the peptide as share of all T cells recognizing peptide MBP93-105 ([2]; MS cohort) | frequency of T cells initially primed with the whole MBP and reacted to peptide HHV-6 (U24)1-13 ([2]; MS patients, p=0.08 vs control) | frequency of T cells initially primed with the whole MBP and reacted to peptide HHV-6 (U24)1-13 ([2]; control group)
84-103: peptide corresponding to the 84-103 region of MBP (DPGSRPHLIRLFSRDAPGRE; UniProt P02686 84-103, looked up, fragment) | highest binding affinity |  |  |  |  |  |  |  |  | 
144-163: peptide corresponding to the 144-163 region of MBP (HGSKYLATASTMDHARHGFL; UniProt P02686 144-163, looked up, fragment) | highest binding affinity |  |  |  |  |  |  |  |  | 
IVTPRTPPPSQGK (listed as Homo sapiens) [MBP93-105] | does not have high binding affinity | no cross-reactivity | 0.53×10^−6 | 0.36×10^−6 | 0.19×10^−6 | 0.09×10^−6 | elevated |  |  | 
MDRPRTPPPSYSE (listed as Homo sapiens) [HHV-6 (U24)1-13] |  |  | 0.7×10^−6 |  | 0.32×10^−6 | 0.17×10^−6 | elevated | greater than 50% | 0.33×10^−6 | 0.05×10^−6
myelin basic protein [whole MBP] |  |  | 0.6×10^−6 |  | 0.6×10^−6 |  |  |  |  | 
